{"source": "paper PMC7703574", "about": "(Journal of medicinal chemistry, 2020)", "key": {"[1]": {"tested_on": "HIV-1 Env pseudoviruses", "settings": "despite low nanomolar potency; cited from earlier work"}, "[2]": {"assay": "Cytotoxicity in TZM-bl cells", "type": "cell-based", "settings": "human"}, "[3]": {"settings": "phosphate buffer, pH7.4; cited from earlier work"}, "[4]": {"tested_on": "Caco-2 cell monolayer", "settings": "no inhibitor; cited from earlier work"}, "[5]": {"tested_on": "Cf2Th-CCR5 cells", "assay": "Cytotoxicity in Cf2Th-CCR5 cells", "type": "cell-based"}, "[6]": {"tested_on": "VSV-G pseudovirus", "type": "cell-based", "settings": "control for HIV-1 specificity"}, "[7]": {"tested_on": "U87-CD4-CXCR4 cells", "assay": "Cytotoxicity in U87-CD4-CXCR4 cells", "type": "cell-based", "settings": "at the doses used for this assay"}, "[8]": {"assay": "Metabolic stability in human liver microsomes", "type": "in vitro ADME"}, "[9]": {"tested_on": "CYP3A", "assay": "Cytochrome P450 inhibition CYP3A", "type": "in vitro ADME", "settings": "human"}, "[10]": {"tested_on": "CYP450 enzymes", "assay": "Cytochrome P450 inhibition, set of CYP450 enzymes", "type": "in vitro ADME"}}}
{"compound": "COc1ccnc2[nH]cc(C(=O)C(=O)N3CCN(C(=O)c4ccccc4)C[C@H]3C)c12", "note": "[BMS-378806, 4-benzoyl-1-[(4-methoxy-1H-pyrrolo-[2,3-b]pyridin-3-yl)oxoacetyl]-2-(R)-methylpiperazine]", "values": [{"measurement": "activity against A, C, and D subtypes", "setting": "[1]", "result": "weaker activity"}]}
{"compound": "COc1cc(-c2ccc(C(=O)N[C@H](CN)c3nc(CO)cs3)[nH]2)ccn1", "note": "[Compound 47, N-(2-Amino-1-(4-(hydroxymethyl)thiazol-2-yl)ethyl)-5-(2-methoxypyridin-4-yl)-1H-pyrrole-2-carboxamide]", "values": [{"measurement": "CC50 at 3 d", "setting": "[2]", "result": "> 133", "unit": "µM"}]}
{"compound": "NC[C@H](NC(=O)c1ccc(-c2ccc(C(F)(F)F)cn2)[nH]1)c1nc(CO)c(CO)s1", "note": "[Compound 36, N-(2-Amino-1-(4,5-bis(hydroxymethyl)thiazol-2-yl)ethyl)-5-(5-(trifluoromethyl)pyridin-2-yl)-1H-pyrrole-2-carboxamide]", "values": [{"measurement": "CC50 at 3 d", "setting": "[2]", "result": "> 113", "unit": "µM"}]}
{"compound": "NC[C@H](NC(=O)c1ccc(-c2ccc(C(F)(F)F)cn2)[nH]1)c1ncc(CO)s1", "note": "[Compound 6, N-(2-Amino-1-(5-(hydroxymethyl)thiazol-2-yl)ethyl)-5-(5-(trifluoromethyl)pyridin-2-yl)-1H-pyrrole-2-carboxamide]", "values": [{"measurement": "CC50 at 3 d", "setting": "[2]", "result": "> 122", "unit": "µM"}]}
{"compound": "NC[C@@H](NC(=O)c1ccc(-c2ncc(Cl)cn2)[nH]1)c1nc(CO)cs1", "note": "[Compound 45, N-(2-Amino-1-(4-(hydroxymethyl)thiazol-2-yl)ethyl)-5-(5-chloropyrimidin-2-yl)-1H-pyrrole-2-carboxamide]", "values": [{"measurement": "CC50 at 3 d", "setting": "[2]", "result": "> 66", "unit": "µM"}]}
{"compound": "NC[C@H](NC(=O)c1ccc(-c2ccc(C(F)(F)F)nn2)[nH]1)c1nc(CO)cs1", "note": "[Compound 44, N-(2-Amino-1-(4-(hydroxymethyl)thiazol-2-yl)ethyl)-5-(6-(trifluoromethyl)pyridazin-3-yl)-1H-pyrrole-2-carboxamide]", "values": [{"measurement": "CC50 at 3 d", "setting": "[2]", "result": "> 73", "unit": "µM"}]}
{"compound": "NC[C@@H](NC(=O)c1ccc(-c2ccc(C(F)(F)F)cn2)[nH]1)c1ncc(C(O)CO)s1", "note": "(stereo partly shown) [Compound 13, N-(2-Amino-1-(5-(1,2-dihydroxyethyl)thiazol-2-yl)ethyl)-5-(5-(trifluoromethyl)pyridin-2-yl)-1H-pyrrole-2-carboxamide]", "values": [{"measurement": "CC50 at 3 d", "setting": "[2]", "result": "> 113", "unit": "µM"}]}
{"compound": "COc1cnc(-n2cnc(C)n2)c2[nH]cc(C(=O)C(=O)N3CCN(C(=O)c4ccccc4)CC3)c12", "note": "[BMS-626529]", "values": [{"measurement": "solubility", "setting": "[3]", "result": "47 to 237", "unit": "µg/mL"}, {"measurement": "Caco-2 permeability mean Papp A-to-B", "setting": "[4]", "result": 9.27, "unit": "×10⁻⁶ cm/s"}, {"measurement": "Caco-2 permeability mean Papp B-to-A", "setting": "[4]", "result": 32, "unit": "×10⁻⁶ cm/s"}]}
{"compound": "NC[C@@H](NC(=O)c1ccc(-c2ccc(Cl)nc2)[nH]1)c1nc(CO)cs1", "note": "[Compound 39, N-(2-Amino-1-(4-(hydroxymethyl)thiazol-2-yl)ethyl)-5-(6-chloropyridin-3-yl)-1H-pyrrole-2-carboxamide]", "values": [{"measurement": "CC50 at 3 d", "setting": "[2]", "result": "> 132", "unit": "µM"}]}
{"compound": "NC[C@@H](NC(=O)c1ccc(-c2ccc(C(F)(F)F)nc2)[nH]1)c1nc(CO)cs1", "note": "[Compound 41, N-(2-Amino-1-(4-(hydroxymethyl)thiazol-2-yl)ethyl)-5-(6-(trifluoromethyl)pyridin-3-yl)-1H-pyrrole-2-carboxamide]", "values": [{"measurement": "CC50 at 3 d", "setting": "[2]", "result": "> 122", "unit": "µM"}]}
{"compound": "NC[C@@H](NC(=O)c1ccc(-c2ccc(F)cn2)[nH]1)c1nc(CO)cs1", "note": "[Compound 17, N-(2-Amino-1-(4-(hydroxymethyl)thiazol-2-yl)ethyl)-5-(5-fluoropyridin-2-yl)-1H-pyrrole-2-carboxamide]", "values": [{"measurement": "CC50 at 3 d", "setting": "[2]", "result": "> 138", "unit": "µM"}]}
{"compound": "Cc1ccc(-c2ccc(C(=O)N[C@H](CN)c3nc(CO)cs3)[nH]2)nc1", "note": "[Compound 19, N-(2-Amino-1-(4-(hydroxymethyl)thiazol-2-yl)ethyl)-5-(5-methylpyridin-2-yl)-1H-pyrrole-2-carboxamide]", "values": [{"measurement": "CC50 at 3 d", "setting": "[2]", "result": "> 140", "unit": "µM"}]}
{"compound": "NC[C@@H](NC(=O)c1ccc(-c2ccc(C(F)(F)F)cn2)[nH]1)c1nc(C(O)CO)cs1", "note": "(stereo partly shown) [Compound 29, N-(2-Amino-1-(4-(1,2-dihydroxyethyl)thiazol-2-yl)ethyl)-5-(5-(trifluoromethyl)pyridin-2-yl)-1H-pyrrole-2-carboxamide]", "values": [{"measurement": "CC50 at 3 d", "setting": "[2]", "result": "> 113", "unit": "µM"}]}
{"compound": "Cc1cc(-c2ccc(C(F)(F)F)cn2)[nH]c1C(=O)N[C@@H](CN)c1ncc(CO)s1", "note": "[Compound 8, N-(2-Amino-1-(5-(hydroxymethyl)thiazol-2-yl)ethyl)-3-methyl-5-(5-(trifluoromethyl)pyridin-2-yl)-1H-pyrrole-2-carboxamide]", "values": [{"measurement": "toxicity at the doses used in this assay", "setting": "[5]", "result": "did not show toxicity"}, {"measurement": "activity against the pseudovirus VSV-G", "setting": "[6]", "result": "poorly active"}, {"measurement": "toxicity in the U87-CD4-CXCR4 cell line", "setting": "[7]", "result": "did not induce toxicity"}, {"measurement": "microsomal CLint", "setting": "[8]", "result": "< 11.6", "unit": "µL/min/mg"}, {"measurement": "IC50", "setting": "[9]; probe midazolam", "result": "> 100", "unit": "µM"}, {"measurement": "IC50", "setting": "[9]; probe testosterone", "result": "> 62.2", "unit": "µM"}, {"measurement": "inhibition of CYP1A2, CYP2B6, and CYP3A", "setting": "[10]; at greater than 50 μM dose levels", "result": "no inhibition"}, {"measurement": "inhibition of the other CYP450 enzymes", "setting": "[10]; at the 100 μM dose level", "result": "No inhibitory activities"}]}
{"compound": "Cc1cc(-c2ccc(C(F)(F)F)cn2)[nH]c1C(=O)N[C@H](CN)c1nc(CO)cs1", "note": "[Compound 33, N-(2-Amino-1-(4-(hydroxymethyl)thiazol-2-yl)ethyl)-3-methyl-5-(5-(trifluoromethyl)pyridin-2-yl)-1H-pyrrole-2-carboxamide]", "values": [{"measurement": "toxicity at the doses used in this assay", "setting": "[5]", "result": "did not show toxicity"}, {"measurement": "activity against the pseudovirus VSV-G", "setting": "[6]", "result": "poorly active"}, {"measurement": "CC50 at 72 h", "setting": "[2]", "result": "85 ± 3", "unit": "µM"}, {"measurement": "toxicity in the U87-CD4-CXCR4 cell line", "setting": "[7]", "result": "did not induce toxicity"}]}
{"compound": "NC[C@H](NC(=O)c1ccc(-c2ccc(Cl)cn2)[nH]1)c1nc(CO)cs1", "note": "[Compound 16, N-(2-Amino-1-(4-(hydroxymethyl)thiazol-2-yl)ethyl)-5-(5-chloropyridin-2-yl)-1H-pyrrole-2-carboxamide]", "values": [{"measurement": "CC50 at 3 d", "setting": "[2]", "result": "> 132", "unit": "µM"}]}
